# Columns and labels:
# ATP-citrate synthase [1] = target: T1, ATP-citrate synthase (Rattus norvegicus, UniProt P16638); test: (§1) Inhibition of rat liver ACLY
# T1 sequence (P16638 whole entry): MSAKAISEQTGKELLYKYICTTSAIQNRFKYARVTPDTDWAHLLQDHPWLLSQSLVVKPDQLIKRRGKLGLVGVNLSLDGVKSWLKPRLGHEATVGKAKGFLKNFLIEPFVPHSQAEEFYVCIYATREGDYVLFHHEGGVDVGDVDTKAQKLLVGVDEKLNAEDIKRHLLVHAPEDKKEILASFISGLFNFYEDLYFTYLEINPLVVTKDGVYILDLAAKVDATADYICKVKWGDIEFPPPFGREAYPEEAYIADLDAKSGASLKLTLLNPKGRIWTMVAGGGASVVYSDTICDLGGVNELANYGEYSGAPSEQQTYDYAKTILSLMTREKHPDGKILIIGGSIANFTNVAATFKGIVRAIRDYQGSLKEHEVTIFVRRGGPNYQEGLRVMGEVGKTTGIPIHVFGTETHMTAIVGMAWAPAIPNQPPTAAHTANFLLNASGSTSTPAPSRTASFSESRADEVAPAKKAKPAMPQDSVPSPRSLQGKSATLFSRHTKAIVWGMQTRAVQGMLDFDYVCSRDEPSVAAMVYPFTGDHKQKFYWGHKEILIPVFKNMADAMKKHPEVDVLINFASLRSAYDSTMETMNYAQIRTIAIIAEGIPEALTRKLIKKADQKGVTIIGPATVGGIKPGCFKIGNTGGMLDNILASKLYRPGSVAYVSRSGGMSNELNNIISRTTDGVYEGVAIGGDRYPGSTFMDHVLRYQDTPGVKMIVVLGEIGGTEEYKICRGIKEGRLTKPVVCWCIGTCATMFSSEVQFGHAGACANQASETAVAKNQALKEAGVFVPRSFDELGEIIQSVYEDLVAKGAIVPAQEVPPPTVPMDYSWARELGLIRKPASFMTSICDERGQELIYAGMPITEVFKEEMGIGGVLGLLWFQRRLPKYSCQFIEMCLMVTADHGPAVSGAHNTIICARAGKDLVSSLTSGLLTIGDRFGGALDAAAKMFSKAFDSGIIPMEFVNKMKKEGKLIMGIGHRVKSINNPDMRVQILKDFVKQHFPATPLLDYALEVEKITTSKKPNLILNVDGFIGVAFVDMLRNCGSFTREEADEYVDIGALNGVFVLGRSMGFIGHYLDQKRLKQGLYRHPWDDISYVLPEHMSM
# PC-3 = test: Antiproliferative activity against human PC3 cells; assay type: functional, cell-based
# LNCaP = test: Antiproliferative activity against human LNCAP cells; assay type: functional, cell-based
# [2] = target: T2, ATP-citrate synthase (Rattus norvegicus) (UniProt P16638); test: as §1; conditions: concentration not given here
# T2 sequence (whole entry): T1 sequence (P16638 whole entry)
# SK-OV-3 = test: Antiproliferative activity against human SKOV3 cells; assay type: functional, cell-based
# [3] = target: T3, ATP-citrate synthase (Homo sapiens) (UniProt P53396); test: Inhibition of ACLY in human HepG2 cells assessed as reduction in cholesterol synthesis at 30 uM relative to control; assay type: cell-based
# T3 sequence (whole entry): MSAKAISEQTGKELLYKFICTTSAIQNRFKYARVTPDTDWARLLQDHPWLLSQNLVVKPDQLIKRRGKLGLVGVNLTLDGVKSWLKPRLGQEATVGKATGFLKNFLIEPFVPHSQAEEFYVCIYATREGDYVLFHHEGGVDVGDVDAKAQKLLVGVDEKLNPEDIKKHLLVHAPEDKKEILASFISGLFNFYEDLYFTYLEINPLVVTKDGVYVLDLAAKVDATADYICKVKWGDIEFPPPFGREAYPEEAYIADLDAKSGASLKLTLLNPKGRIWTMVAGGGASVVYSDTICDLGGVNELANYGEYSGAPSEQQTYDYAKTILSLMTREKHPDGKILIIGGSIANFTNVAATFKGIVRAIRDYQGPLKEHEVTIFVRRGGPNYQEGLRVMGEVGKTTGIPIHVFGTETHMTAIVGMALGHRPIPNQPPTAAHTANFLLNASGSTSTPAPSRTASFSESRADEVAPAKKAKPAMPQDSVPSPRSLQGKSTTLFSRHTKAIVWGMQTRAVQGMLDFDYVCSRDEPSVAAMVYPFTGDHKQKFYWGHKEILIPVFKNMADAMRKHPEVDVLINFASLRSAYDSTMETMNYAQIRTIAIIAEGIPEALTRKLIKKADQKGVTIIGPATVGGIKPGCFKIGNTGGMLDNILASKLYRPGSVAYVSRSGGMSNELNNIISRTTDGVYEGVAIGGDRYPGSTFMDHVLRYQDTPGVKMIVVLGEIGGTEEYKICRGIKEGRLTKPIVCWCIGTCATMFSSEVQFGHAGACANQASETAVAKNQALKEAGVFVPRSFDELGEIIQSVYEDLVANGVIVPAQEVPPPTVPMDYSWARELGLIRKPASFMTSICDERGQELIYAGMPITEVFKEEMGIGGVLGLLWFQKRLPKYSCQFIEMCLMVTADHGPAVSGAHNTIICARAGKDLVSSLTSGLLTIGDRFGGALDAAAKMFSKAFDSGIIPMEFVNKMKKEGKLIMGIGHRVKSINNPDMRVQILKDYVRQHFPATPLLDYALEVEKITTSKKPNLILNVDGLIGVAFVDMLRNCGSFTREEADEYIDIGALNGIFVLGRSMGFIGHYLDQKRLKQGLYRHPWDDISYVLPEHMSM
# A549 = test: Antiproliferative activity against human A549 cells; assay type: functional, cell-based
# [4] = target: T3, ATP-citrate synthase (Homo sapiens); test: Inhibition of ACLY in human HepG2 cells assessed as reduction in fatty acid synthesis at 30 uM relative to control; assay type: cell-based
# ATP-citrate synthase [5] = target: T4, ATP-citrate synthase (Homo sapiens, UniProt P53396)
# T4 sequence (P53396 whole entry): T3 sequence (whole entry)
# Description: Competitive inhibition of human liver ACLY using varying levels of citrate as substrate
# ATP-citrate synthase [6] = target: T4, ATP-citrate synthase; test: Inhibition of ACLY (unknown origin)
# Rattus norvegicus [7] = test: In vivo inhibition of ACLY in rat administered through diet relative to control; assay type: functional
# ATP-citrate synthase [8] = target: T1, ATP-citrate synthase; test: Reversible inhibition of rat liver ACLY
# Rattus norvegicus [9] = test: In vivo inhibition of ACLY in po dosed rat assessed as reduction in plasma triglyceride level after 7 days relative to control; assay type: functional
# Canis familiaris [10] = test: In vivo inhibition of ACLY in po dosed dog assessed as reduction in plasma cholesterol level after 15 days relative to control; assay type: functional, Canis lupus familiaris
# Canis familiaris [11] = test: In vivo inhibition of ACLY in po dosed dog assessed as reduction in plasma triglyceride level after 15 days relative to control; assay type: functional, Canis lupus familiaris
# Rattus norvegicus [12] = test: In vivo inhibition of ACLY in po dosed rat assessed as reduction in plasma cholesterol level after 7 days relative to control; assay type: functional
smiles,measurement,setting,value
CCCCCC[C@H]1C(=O)O[C@H](C)[C@H](NC(=O)c2cccc(NC=O)c2O)C(=O)O[C@@H](C)[C@@H]1OC(=O)CCC,Ki,ATP-citrate synthase [1],4 µM
CC(=O)OC(C)(C)/C=C/C(=O)[C@](C)(O)[C@H]1[C@H](O)C[C@@]2(C)[C@@H]3CC=C4[C@@H](C[C@H](O)C(=O)C4(C)C)[C@]3(C)C(=O)C[C@]12C,IC50,PC-3,0.1 µM
same,IC50,LNCaP,0.1 µM
CC(=O)C(C)=O,inhibition,[2],35%
O=C(O)C[C@@]1(O)C[C@@H](CCCCCCc2ccc(Cl)cc2Cl)OC1=O,IC50,SK-OV-3,53 µM
same,inhibition,[3],91%
same,IC50,A549,24 µM
same,inhibition,[4],82%
same,IC50,PC-3,26 µM
CC(C)CC[C@H]1C(=O)O[C@H](C)[C@H](NC(=O)c2cccc(NC=O)c2O)C(=O)O[C@@H](C)[C@@H]1OC(=O)CC(C)C,Ki,ATP-citrate synthase [1],4 µM
O=C(O)C[C@@](O)(C(=O)O)[C@H](O)C(=O)O,Ki,ATP-citrate synthase [5],300 µM
CCCCCC[C@H]1C(=O)O[C@H](C)[C@H](NC(=O)c2cccc(NC=O)c2O)C(=O)O[C@@H](C)[C@@H]1OC(=O)C(C)C,Ki,ATP-citrate synthase [1],4 µM
CCC(C)C(=O)O[C@H]1[C@H](C)OC(=O)[C@@H](NC(=O)c2cccc(NC=O)c2O)[C@@H](C)OC(=O)[C@@H]1CCC(C)C (stereo not given in full),Ki,ATP-citrate synthase [1],4 µM
O=C1C(c2ccc(O)c(O)c2)=c2c(c3c(n2CCc2ccc(O)cc2)=C(c2ccc(O)c(O)c2)C(=O)c2cc(O)c(O)cc2-3)-c2cc(O)c(O)cc21 [PURPURONE],IC50,ATP-citrate synthase [6],7 µM
N[C@@H](CCC(=O)O)C(=O)O [GLUTAMIC ACID],Ki,ATP-citrate synthase [1],300 µM
CC1=CC(O)=C2C(=O)c3c(ccc(-c4ccc5c(c4O)C(=O)C4=C(O)C6OC6(C)C(OC(=O)CC(=O)O)C4(C)O5)c3O)OC2(C)C1=O (stereo not given),IC50,ATP-citrate synthase [1],6.19 µM
O=CC(=O)c1ccccc1,inhibition,[2],85%
Clc1cccc(-c2ccc(Cl)c(Cl)c2Cl)c1Cl,inhibition (INH),Rattus norvegicus [7],69%
O=C1C[C@@](O)(C(=O)O)[C@@H](C(=O)O)O1,Ki,ATP-citrate synthase [1],50 to 100 µM
CS(=N)(=O)C[C@@](O)(CC(=O)O)C(=O)O (stereo not given in full),Ki,ATP-citrate synthase [8],250 µM
O=C(O)C[C@@](O)(C[C@H](O)CCCCCCc1ccc(Cl)cc1Cl)C(=O)O,inhibition (INH),Rattus norvegicus [9],<=80%
same,inhibition (INH),Canis familiaris [10],<=23%
same,inhibition (INH),Canis familiaris [11],<=38%
same,inhibition (INH),Rattus norvegicus [12],<=46%
CC12Oc3ccc(-c4ccc5c(c4O)C(=O)C4=C(O)C6OC6(C)C(OC(=O)CC(=O)O)C4(C)O5)c(O)c3C(=O)C1=C(O)C1OC1(C)C2O (stereo not given),IC50,ATP-citrate synthase [1],9.63 µM

# From ChEMBL document CHEMBL4270641, “ATP citrate lyase (ACLY) inhibitors: An anti-cancer strategy at the crossroads of glucose and lipid metabolism” (Eur J Med Chem, 2018)
